The target in assay [1] is T1, NS5B from the BK strain (genotype 1b) (Hepatitis C virus genotype 1b, UniProt P26663).
T1 construct: NS5B from the BK strain (genotype 1b) is expressed in E coli as a protein in which the 21 C-terminal amino acids are replaced; made in house; host or cells: E. coli
Description: Hepatitis C polymerase (NS5B, BK strain) inhibition, radioactive filter assay. The format is biochemical. Conditions: NS5B BK strain (genotype 1b). From the text:
(§1) The ability of the compounds of the present invention to inhibit Hepatitis C Polymerase was established by the following experimental procedure:
NS5B from the BK strain (genotype 1b) is expressed in E coli as a protein in which the 21 C-terminal amino acids are replaced with a short linker and a hexahistidine tag ([…]). The purified protein is mixed with radioactive nucleotides and allowed to replicate a heteropolymeric RNA substrate, primed by an endogenous short hairpin, resulting in an approximately 760 nt product. The radioactive product is captured on a filter and quantitated after removal of the unincorporated nucleotides.
(§2) • 0.5M Na Phosphate buffer. Per liter, weigh 134 gr Na2HPO4.7H2O, add water to 900 ml. Adjust pH to 7.0 with phosphoric acid. Top off with water to 1 L. • Dilute nucleotides 1:1000 to 10 μM (GTP and CTP) or 1:100 to 100 μM (ATP and UTP) into RNase free water. Procedure: • (1) Compounds 10 μl at […] in 15% dimethylsulfoxide (DMSO) When starting from 100 μg/ml compound stock in 1% DMSO: Dispense 5 μl 30% DMSO per well Dispense 5 μl compound (100 μg/ml) per well. When starting from 50 μg/ml compound stock in 15% DMSO: Add 10 μl compound per well.
(§3) Add 20 μl enzyme mix into each well of the assay plate. Incubate compound and enzyme at room temperature for 15 minutes • (3) Template mix—prepare ahead
(§4) Spin down a tube of RNA (5 μg/tube stored in 75% ethanol and 0.3 M sodium acetate) in a microcentrifuge for 20 minutes at 4° C. One tube is enough for 1-1.5 plates. Remove as much ethanol from the tube as possible by inverting the tube. Be gentle, pellet RNA may not adhere to the tube. Vacuum dry the RNA. Resuspend the RNA by adding 1 ml of DEPC water, close the cap of the tube tightly. To dissolve RNA, incubate RNA solution on ice for ˜60 minutes and gently vortex. Spin briefly to ensure all RNA solution is down to the bottom of the tube before opening cap. Gently transfer RNA solution into a 5 ml or larger tube. Add another 3 ml of DEPC water (total 4 ml of volume).
(§5) Add the following volumes of reagents
(§6) Add 20 μl template mix per reaction (i.e. 20 ng of pOF per reaction or ˜3 nM) • (4) Incubate reaction at room temperature (22-25° C.) for 2 hours. • (5) Stop reaction by adding 50 μl of 170 mM EDTA.
(§7) Final concentration of EDTA is 85 mM. • (6) Prewet filters of Millipore multiscreen assay plate by adding 200 μl of 0.5 M sodium phosphate buffer, pH 7.0 into each well. Let stand at room temperature for 2-3 minutes. • (7) Place the multiscreen filter plate onto a Millipore Manifold and turn on vacuum to allow buffer to flow through. Turn off vacuum. Transfer 80 μl of the reaction product into each well of the filter plate. Let stand for 2-3 minutes. Turn on vacuum to filter reaction product. • (8) Turn off vacuum. Add 200 μl of 0.5 M sodium phosphate buffer, pH 7.0 into each well to wash filter. Turn on vacuum.
(§8) Repeat step (8) three more times. • (9) Remove polypropylene bottom. Spot dry filter at the bottom with paper towel. Air dry filter plate on a bench for 1 hour. Add 40 μl Super Mix scintillant. Seal top of the plate with a tape. Place plate into a Packard carrier or micro-beta carrier. • (10) Count plate using a Packard Topcount or micro-beta counter. Count (for example using Program 10) for ^33P in Top count or ^33P program in micro-beta.
(§9) See, Ferrari et al. 1999. J. Virology 73:1649-1654: “Characterization of soluble Hepatitis C virus RNA-dependent RNA polymerase expressed in E. coli and Takamizawa et al. 1991” and J. Virology 65:1105-1113: “Structure and characterization of the Hepatitis C virus genome isolated from human carriers,” both references are hereby incorporated by reference.

The target of assay [2] is BB7 RNA-dependent RNA polymerase hepatitis C virus protein (Con1 HCV sequence) (Hepatitis C virus genotype 1b, UniProt Q9WMX2). Description: Hepatitis C polymerase (BB7) inhibition. The class given is biochemical.
Sequence of BB7 RNA-dependent RNA polymerase hepatitis C virus protein (Con1 HCV sequence) (Q9WMX2 2420-3010): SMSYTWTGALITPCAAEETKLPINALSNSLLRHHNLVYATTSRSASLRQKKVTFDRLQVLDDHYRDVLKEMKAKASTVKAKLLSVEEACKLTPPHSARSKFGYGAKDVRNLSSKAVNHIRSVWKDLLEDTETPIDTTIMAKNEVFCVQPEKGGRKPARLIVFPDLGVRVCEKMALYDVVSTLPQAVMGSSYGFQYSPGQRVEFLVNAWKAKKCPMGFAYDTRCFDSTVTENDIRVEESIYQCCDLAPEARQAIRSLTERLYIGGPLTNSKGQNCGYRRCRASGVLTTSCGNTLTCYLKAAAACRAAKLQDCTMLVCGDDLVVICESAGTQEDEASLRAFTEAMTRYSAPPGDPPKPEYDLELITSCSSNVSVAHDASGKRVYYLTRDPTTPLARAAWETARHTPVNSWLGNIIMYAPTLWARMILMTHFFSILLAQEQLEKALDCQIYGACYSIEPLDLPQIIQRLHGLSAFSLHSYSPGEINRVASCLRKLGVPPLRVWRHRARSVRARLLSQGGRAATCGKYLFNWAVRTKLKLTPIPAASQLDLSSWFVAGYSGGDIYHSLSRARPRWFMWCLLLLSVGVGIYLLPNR
From the text: For purposes of this invention, the term “BB7” denotes an RNA-dependent RNA polymerase hepatitis C virus protein sequence which is derived from HCV replicon. A discussion of BB7 and related technology can be found in Blight, K. et al. (2000) Science 290:1972-1974. BB7 can be licensed from Apath, LLC (893 North Warson Road, Saint Louis Mo. 63141, USA). BB7 is also referred to as Con1 HCV sequence and discussions of Con1 can be found in the following references: Lohmann, V. et al. (1999) Science 285:110-113; Pietschmann, T. et al. (2001) J. Virol. […]:1252-1264; Lohmann, V. et al. (2001) J. Virol. 75:1437-1449.
as §1, §2, §3, §4, §5, §6, §7, §8, §9

The structures appear in SMILES notation. A value given as a limit tells only on which side of the number the result lay.

T1 sequence (P26663 2420-2989): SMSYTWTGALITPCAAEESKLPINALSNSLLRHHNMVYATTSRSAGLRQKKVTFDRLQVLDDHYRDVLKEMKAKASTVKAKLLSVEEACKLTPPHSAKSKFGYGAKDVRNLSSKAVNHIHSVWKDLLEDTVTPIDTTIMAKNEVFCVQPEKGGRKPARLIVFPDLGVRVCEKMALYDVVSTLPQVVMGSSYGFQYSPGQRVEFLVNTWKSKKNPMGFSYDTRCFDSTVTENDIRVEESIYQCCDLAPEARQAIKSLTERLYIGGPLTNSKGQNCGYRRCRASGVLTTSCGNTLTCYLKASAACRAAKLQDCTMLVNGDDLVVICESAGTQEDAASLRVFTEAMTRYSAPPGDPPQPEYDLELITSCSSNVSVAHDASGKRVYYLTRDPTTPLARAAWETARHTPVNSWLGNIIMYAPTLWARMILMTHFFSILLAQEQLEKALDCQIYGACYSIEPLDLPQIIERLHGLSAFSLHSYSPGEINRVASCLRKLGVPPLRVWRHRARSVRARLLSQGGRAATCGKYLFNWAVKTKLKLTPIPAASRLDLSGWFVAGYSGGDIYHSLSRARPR

Turning to `CCCC1(CC(=O)O)OCCc2c1[nH]c1c(C)c(CO[C@H]3CCOC3)cc(C#N)c21` (mixture of isomers) [Example 13, (3′S,1S*)[5-Cyano-8-methyl-1-propyl-7-(tetrahydro-furan-3-yloxymethyl)-1,3,4,9-tetrahydro-pyrano[3,4-b]indol-1-yl]-acetic acid], the half-maximal inhibitory concentration (IC50) in assay [1] and in assay [2] was 500 to 5000 nM throughout.

On to `CCCC1(CC(=O)O)OCCc2c1[nH]c1c(C)c(CO[C@@H]3CCOC3)cc(C#N)c21` (mixture of isomers) [Example 14, (3′R,1S*)[5-Cyano-8-methyl-1-propyl-7-(tetrahydro-furan-3-yloxymethyl)-1,3,4,9-tetrahydro-pyrano[3,4-b]indol-1-yl]-acetic acid], for which the IC50 in assay [1] and in assay [2] was 500 to 5000 nM each time.

Take `CCOCCOc1cc(C#N)c2c3c([nH]c2c1C)C(CC(=O)O)([C@@H](C)CC)OCC3` (mixture of isomers) [Example 33, (1R*,10S)-[1-sec-Butyl-5-cyano-7-(2-ethoxy-ethoxy)-8-methyl-1,3,4,9-tetrahydro-pyrano[3,4-b]indol-1-yl]-acetic acid]: the IC50 in assay [1] and in assay [2] was less than 500 nM in each case.

Turning to `CC[C@H](C)C1(CC(=O)O)OCCc2c1[nH]c1c(C)c(OCCOC(C)C)cc(C#N)c21` (mixture of isomers) [Example 34, (1R*,10S)-[1-sec-Butyl-5-cyano-7-(2-isopropoxy-ethoxy)-8-methyl-1,3,4,9-tetrahydro-pyrano[3,4-b]indol-1-yl]-acetic acid], the half-maximal inhibitory concentration (IC50) in assay [1] and in assay [2] was less than 500 nM each time.

With `CC[C@H](C)C1(CC(=O)O)OCCc2c1[nH]c1c(C)c(OCc3nsc(N(C)C)n3)cc(C#N)c21` (mixture of isomers) [Example 35, (1R*,10S)-[1-sec-Butyl-5-cyano-7-(5-dimethylamino-[1,2,4]thiadiazol-3-ylmethoxy)-8-methyl-1,3,4,9-tetrahydro-pyrano[3,4-b]indol-1-yl]-acetic acid], the half-maximal inhibitory concentration (IC50) in assay [1] and in assay [2] was less than 500 nM in each case.

In the case of `CCCC1(CC(=O)O)OCCc2c1[nH]c1c(C)c(CO)cc(C#N)c21` (centres unmarked) [Example 1, (5-Cyano-7-hydroxymethyl-8-methyl-1-propyl-1,3,4,9-tetrahydro-pyrano[3,4-b]indol-1-yl)-acetic acid], the IC50 in assay [1] and in assay [2] was less than 500 nM in each case.

As for `CCCC1(CC(=O)O)OCCc2c1[nH]c1c(C)c(COC)cc(C#N)c21` (centres unmarked) [Example 2, (5-Cyano-7-methoxymethyl-8-methyl-1-propyl-1,3,4,9-tetrahydro-pyrano[3,4-b]indol-1-yl)-acetic acid], the IC50 in assay [1] was 500 to 5000 nM; in assay [2] it was less than 500 nM.

As for `CCCC1(CC(=O)O)OCCc2c1[nH]c1c(C)c(COCC)cc(C#N)c21` (centres unmarked) [Example 3, (5-Cyano-7-ethoxymethyl-8-methyl-1-propyl-1,3,4,9-tetrahydro-pyrano[3,4-b]indo-1-yl)-acetic acid], the IC50 in assay [1] was 500 to 5000 nM; in assay [2], less than 500 nM.

For the molecule `CCCOCc1cc(C#N)c2c3c([nH]c2c1C)C(CCC)(CC(=O)O)OCC3` (centres unmarked) [Example 4, (5-Cyano-8-methyl-7-propoxymethyl-1-propyl-1,3,4,9-tetrahydro-pyrano[3,4-b]indol-1-yl)-acetic acid], the 50% inhibitory concentration (IC50) is 500 to 5000 nM in assay [1] and less than 500 nM in assay [2].

For `CCCC1(CC(=O)O)OCCc2c1[nH]c1c(C)c(COC(C)C)cc(C#N)c21` (centres unmarked) [Example 5, (5-Cyano-7-isopropoxymethyl-8-methyl-1-propyl-1,3,4,9-tetrahydro-pyrano[3,4-b]indol-1-yl)-acetic acid], the IC50 in assay [1] is 500 to 5000 nM; in assay [2] it was less than 500 nM.

`CCCC1(CC(=O)O)OCCc2c1[nH]c1c(C)c(COC3CCC3)cc(C#N)c21` (centres unmarked) [Example 6, (5-Cyano-7-cyclobutoxymethyl-8-methyl-1-propyl-1,3,4,9-tetrahydro-pyrano[3,4-b]indol-1-yl)-acetic acid]: the IC50 was 500 to 5000 nM in assay [1] and less than 500 nM in assay [2].

Turning to `CCCC1(CC(=O)O)OCCc2c1[nH]c1c(C)c(COC3CCCCC3)cc(C#N)c21` (centres unmarked) [Example 7, (5-Cyano-7-cyclohexyloxymethyl-8-methyl-1-propyl-1,3,4,9-tetrahydro-pyrano[3,4-b]indol-1-yl)-acetic acid], the IC50 in assay [1] and in assay [2] was 500 to 5000 nM each time.

As for `CCCC1(CC(=O)O)OCCc2c1[nH]c1c(C)c(COCC3CC3)cc(C#N)c21` (centres unmarked) [Example 8, (5-Cyano-7-cyclopropylmethoxymethyl-8-methyl-1-propyl-1,3,4,9-tetrahydro-pyrano[3,4-b]indol-1-yl)-acetic acid], the figures for the concentration for half-maximal inhibition (IC50) in assay [1] and in assay [2] were 500 to 5000 nM and less than 500 nM, respectively.

Consider `CCCC1(CC(=O)O)OCCc2c1[nH]c1c(C)c(COCC3CCC3)cc(C#N)c21` (centres unmarked) [Example 9, (5-Cyano-7-cyclobutylmethoxymethyl-8-methyl-1-propyl-1,3,4,9-tetrahydro-pyrano[3,4-b]indol-1-yl)-acetic acid], for which the half-maximal inhibitory concentration (IC50) in assay [1] and in assay [2] was 500 to 5000 nM in each case.

Regarding `CCCC1(CC(=O)O)OCCc2c1[nH]c1c(C)c(COCC3CCCC3)cc(C#N)c21` (centres unmarked) [Example 10, (5-Cyano-7-cyclopentylmethoxymethyl-8-methyl-1-propyl-1,3,4,9-tetrahydro-pyrano[3,4-b]indol-1-yl)-acetic acid], the half-inhibitory concentration (IC50) in assay [1] and in assay [2] was 500 to 5000 nM in each case.

As to `CC#CCOCc1cc(C#N)c2c3c([nH]c2c1C)C(CCC)(CC(=O)O)OCC3` (centres unmarked) [Example 11, (7-But-2-ynyloxymethyl-5-cyano-8-methyl-1-propyl-1,3,4,9-tetrahydro-pyrano[3,4-b]indol-1-yl)-acetic acid], the IC50 in assay [1] and in assay [2] was 500 to 5000 nM throughout.

As for `CCCC1(CC(=O)O)OCCc2c1[nH]c1c(C)c(COCc3ccc4c(c3)OCO4)cc(C#N)c21` (centres unmarked) [Example 16, [7-(Benzo[1,3]dioxol-5-ylmethoxymethyl)-5-cyano-8-methyl-1-propyl-1,3,4,9-tetrahydro-pyrano[3,4-b]indol-1-yl]-acetic acid], the half-maximal inhibitory concentration (IC50) in assay [1] is 500 to 5000 nM; in assay [2], less than 500 nM.

Take `CCCC1(CC(=O)O)OCCc2c1[nH]c1c(C)c(COCc3ccc(C)cc3C)cc(C#N)c21` (centres unmarked) [Example 17, [5-Cyano-7-(2,4-dimethyl-benzyloxymethyl)-8-methyl-1-propyl-1,3,4,9-tetrahydro-pyrano[3,4-b]indol-1-yl]-acetic acid]: the 50% inhibitory concentration (IC50) in assay [1] is 500 to 5000 nM; in assay [2], greater than 5000 nM.

For the molecule `CCCC1(CC(=O)O)OCCc2c1[nH]c1c(C)c(COCc3ccsc3)cc(C#N)c21` (centres unmarked) [Example 18, [5-Cyano-8-methyl-1-propyl-7-(thiophen-3-ylmethoxymethyl)-1,3,4,9-tetrahydro-pyrano[3,4-b]indol-1-yl]-acetic acid], the results for the IC50 in assay [1] and in assay [2] were 500 to 5000 nM and less than 500 nM, respectively.

In general, IC50 refers to the midpoint of a concentration-inhibition curve.

The values above are taken from patent US20070219212A1, “Pyranouidole Derivatives and the Use Thereof for the Treatment of Hepatitis C Virus Infection or Disease” (priority 2004, published 2007).
